The supplement of paper PMC8882468

How the values were obtained:
Assay in all cases: CTG-3D luminescence at 96 h relative to day-0 seeding control (ratio to day 0); higher = more growth / less cytotoxicity
HCI-017.E2 = tested on: HCI-017.E2 (organoid from an ER-positive breast cancer xenograft)
Description: (§1)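 PDX-derived breast cancer organoids (PDxO) in 384-well Matrigel plates, 8-point dose (0.000000625-100 uM), 96 h at 37 C; CellTiter-Glo 3D luminescence normalised to the day-0 seeding control (mean of 4 technical replicates over mean of 4 day-0 wells).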

HCI-001 = tested on: HCI-001 (organoid from a triple-negative breast cancer xenograft)
Description: as §1

HCI-012 = tested on: HCI-012 (organoid from a breast cancer xenograft)
Description: as §1

HCI-016 = tested on: HCI-016 (organoid from a triple-negative breast cancer xenograft)
Description: as §1

MDA-MB-231 = tested on: MDA-MB-231
Description: as §1

HCI-015 = tested on: HCI-015 (organoid from a triple-negative breast cancer xenograft)
Description: as §1

O=c1[nH]cc(F)c(=O)[nH]1 [5-fluorouracil]
CTG-3D luminescence at 96 h
Conditions	12.5 pM	0.00025 µM	0.005 µM	0.1 µM	1 µM	10 µM	100 µM	625 fM
HCI-017.E2	1.94	2.02	1.96	2.04	2.05	1.88	1.64	2.219
MDA-MB-231	4.33	4.19	4.49	4.31	4.4	4.03	3.35	4.34

CTG-3D luminescence at 96 h
Conditions	12.5 pM	0.00025 µM	0.005 µM	0.1 µM	1 µM	10 µM	100 µM	625 fM
HCI-001, days in culture: 240	1.75	1.08	1.16	0.972	1.31	0.84	0.903	1.74
HCI-001, days in culture: 260	2.43	1.07	2.1	1.43	1.62	1.42	1.14	1.09
HCI-001, days in culture: 269	1.52	1.48	1.32	1.97	1.62	2.03	1.46	1.77
HCI-001, days in culture: 327	1.6	1.41	2.11	1.91	1.54	1.38	1.51	1.69
HCI-001, days in culture: 346	1.42	1.55	1.28	1.28	1.41	1.26	1.3	1.12
HCI-001, days in culture: 364	1.68	1.19	1.35	1.35	1.13	1.21	0.902	1.55
HCI-012, days in culture: 143	2.31	2.12	1.8	2.12	2.07	1.71	0.413	1.96
HCI-012, days in culture: 162	2.26	2.44	1.98	2.86	1.98	2.16	0.425	2.74
HCI-012, days in culture: 201	2.32	2.31	1.56	1.69	2.12	1.21	1.08	1.85
HCI-015, days in culture: 172	2.81	2	2.42	1.81	1.61	1.12	1.03	2.72
HCI-015, days in culture: 191	2.43	1.43	1.71	0.853	1.35	0.995	0.865	1.37
HCI-015, days in culture: 218	1.85	1.55	1.83	1.77	1.51	1.54	0.999	1.81
HCI-016, days in culture: 153	3.47	1.65	2.39	2.02	2.17	1.8	1.21	3.05
HCI-016, days in culture: 172	2.33	1.93	1.51	1.52	1.52	1.1	1.12	1.92
HCI-016, days in culture: 190	1.67	1.39	1.63	1.35	1.16	1.1	1.11	1.3
HCI-016, days in culture: 199	1.49	1.49	1.44	1.47	1.68	1.21	1.18	1.73
HCI-017.E2, days in culture: 85	2.76	2.47	2.46	2.16	2.41	1.85	1.6	2.21
